The structures appear in SMILES notation. Where two headings read alike, the source gives them in different places.

24 compounds from patent publication US10562908B2, “Ortho substituted phenylpyrazolo- and phenylpyrrolo-pyridazine derivatives having multimodal activity against pain” (priority 2016, dated 2020) can be followed below.

In one assay the target is T1, human μ-opioid receptor (Homo sapiens, UniProt P35372).
T1 construct: expressed in transfected cells; host or cells: CHO-K1
Description: Human μ-opioid receptor radioligand assay ([3H]-DAMGO). The assay is classed as binding. Here is the method: Human μ-Opioid Receptor Radioligand Assay
To investigate binding properties of test compounds to human μ-opioid receptor, transfected CHO-K1 cell membranes and [^3H]-DAMGO (Perkin Elmer, ES-542-C), as the radioligand, were used. The assay was carried out with 20 μg of membrane suspension, 1 nM of [^3H]-DAMGO in either absence or presence of either buffer or 10 μM Naloxone for total and non-specific binding, respectively. Binding buffer contained Tris-HCl 50 mM, MgCl2 5 mM at pH 7.4. Plates were incubated at 27° C. for 60 minutes. After the incubation period, the reaction mix was then transferred to MultiScreen HTS, FC plates (Millipore), filtered and plates were washed 3 times with ice-cold 10 mM Tris-HCL (pH 7.4). Filters were dried and counted at approximately 40% efficiency in a MicroBeta scintillation counter (Perkin-Elmer) using EcoScint liquid scintillation cocktail, preferably, transfected CHO-K1 cell membranes (20 μg) were incubated with 1 nM of [^3H]-DAMGO in assay buffer containing Tris-HCl 50 mM, MgCl2 5 mM at pH 7.4. NBS (non-specific binding) was measured by adding 10 μM Naloxone. The binding of the test compound was measured at five different concentrations. Plates were incubated at 27° C. for 60 minutes. After the incubation period, the reaction mix was then transferred to MultiScreen HTS, FC plates (Millipore), filtered and plates were washed 3 times with ice-cold 10 mM Tris-HCL (pH 7.4). Filters were dried and counted at approximately 40% efficiency in a MicroBeta scintillation counter (Perkin-Elmer) using EcoScint liquid scintillation cocktail.

Assay [1] has as its target Human α2δ-1 subunit of Cav2.2 calcium channel (Homo sapiens, UniProt P54289). Description: Human α2δ-1 subunit of Cav2.2 calcium channel assay ([3H]-Gabapentin). The format is binding. As to the method: Human α2δ-1 Subunit of Cav2.2 Calcium Channel Assay
Human α2δ-1 enriched membranes (2.5 μg) were incubated with 15 nM of radiolabeled [3H]-Gabapentin in assay buffer containing Hepes-KOH 10 mM, pH 7.4. NSB (non specific binding) was measured by adding 10 μM pregabalin. After 60 min incubation at 27° C., binding reaction was terminated by filtering through Multiscreen GF/C (Millipore) presoaked in 0.5% polyethyleneimine in Vacuum Manifold Station, followed by 3 washes with ice-cold filtration buffer containing 50 mM Tris-HCl, pH 7.4. Filter plates were dried at 60° C. for 1 hour and 30 μl of scintillation cocktail were added to each well before radioactivity reading. Readings were performed in a Trilux 1450 Microbeta radioactive counter (Perkin Elmer), i.e. Human α2δ-1 enriched membranes (2.5 μg) were incubated with 15 nM of radiolabeled [3H]-Gabapentin in assay buffer containing Hepes-KOH 10 mM, pH 7.4. NSB (non specific binding) was measured by adding 10 μM pregabalin. The binding of the test compound was measured at five different concentrations. After 60 min incubation at 27° C., binding reaction was terminated by filtering through Multiscreen GF/C (Millipore) presoaked in 0.5% polyethyleneimine in Vacuum Manifold Station, followed by 3 washes with ice-cold filtration buffer containing 50 mM Tris-HCl, pH 7.4. Filter plates were dried at 60° C. for 1 hour and 30 μl of scintillation cocktail were added to each well before radioactivity reading. Readings were performed in a Trilux 1450 Microbeta radioactive counter (Perkin Elmer).

Where [2] appears, read: transfected CHO-K1 cell membranes, 1 nM [3H]-DAMGO, read-out: Binding μ (Ki).
[3] abbreviates: human α2δ-1 enriched membranes, 15 nM [3H]-Gabapentin, read-out: Binding α2δ-1 (Ki).

T1 sequence (P35372 whole entry): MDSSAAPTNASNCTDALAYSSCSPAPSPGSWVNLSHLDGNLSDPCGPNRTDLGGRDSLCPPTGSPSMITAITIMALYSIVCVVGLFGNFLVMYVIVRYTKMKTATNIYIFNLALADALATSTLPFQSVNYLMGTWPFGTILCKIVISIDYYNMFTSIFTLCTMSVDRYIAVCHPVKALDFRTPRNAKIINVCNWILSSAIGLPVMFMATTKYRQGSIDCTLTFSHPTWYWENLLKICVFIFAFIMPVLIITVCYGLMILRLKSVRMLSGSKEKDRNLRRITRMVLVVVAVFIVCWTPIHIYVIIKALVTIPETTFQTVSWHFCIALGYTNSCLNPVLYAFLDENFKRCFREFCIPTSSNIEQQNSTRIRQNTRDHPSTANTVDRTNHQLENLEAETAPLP
Human α2δ-1 subunit of Cav2.2 calcium channel, sequence (P54289 25-1103): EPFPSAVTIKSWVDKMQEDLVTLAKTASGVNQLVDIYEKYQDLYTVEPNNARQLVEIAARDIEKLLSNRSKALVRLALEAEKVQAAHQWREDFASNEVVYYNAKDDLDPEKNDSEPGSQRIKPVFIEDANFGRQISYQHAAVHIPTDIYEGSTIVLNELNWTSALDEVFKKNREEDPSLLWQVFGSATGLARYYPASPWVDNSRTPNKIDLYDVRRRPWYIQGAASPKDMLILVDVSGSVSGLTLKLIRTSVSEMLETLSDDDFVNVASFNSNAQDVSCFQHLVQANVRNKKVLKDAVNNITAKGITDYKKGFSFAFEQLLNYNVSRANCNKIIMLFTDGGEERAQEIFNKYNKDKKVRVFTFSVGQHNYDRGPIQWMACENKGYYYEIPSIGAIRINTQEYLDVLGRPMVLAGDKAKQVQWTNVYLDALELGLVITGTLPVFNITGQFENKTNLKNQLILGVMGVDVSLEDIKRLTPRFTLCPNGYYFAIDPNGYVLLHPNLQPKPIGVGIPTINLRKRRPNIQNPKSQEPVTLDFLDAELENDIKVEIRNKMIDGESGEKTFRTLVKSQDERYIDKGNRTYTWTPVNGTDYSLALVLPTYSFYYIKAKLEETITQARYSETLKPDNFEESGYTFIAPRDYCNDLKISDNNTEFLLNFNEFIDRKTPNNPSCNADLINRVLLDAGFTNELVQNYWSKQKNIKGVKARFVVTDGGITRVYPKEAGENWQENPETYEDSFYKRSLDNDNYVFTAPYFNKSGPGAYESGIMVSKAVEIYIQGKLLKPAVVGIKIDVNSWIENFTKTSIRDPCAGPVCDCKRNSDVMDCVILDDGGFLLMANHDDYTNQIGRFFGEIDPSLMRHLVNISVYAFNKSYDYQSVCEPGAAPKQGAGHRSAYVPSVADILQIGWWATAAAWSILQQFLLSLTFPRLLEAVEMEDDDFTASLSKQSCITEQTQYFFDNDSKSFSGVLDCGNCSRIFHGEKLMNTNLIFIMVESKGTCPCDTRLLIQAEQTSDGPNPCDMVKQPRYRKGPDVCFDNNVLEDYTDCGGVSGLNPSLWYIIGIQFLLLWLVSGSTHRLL

By Ki is commonly meant the equilibrium dissociation constant of an inhibitor or competing ligand from its target. For `CNCC(Cc1ccccc1)Oc1ccccc1-n1nc2c(N(C)C)nnc(C)c2c1C` (stereo not drawn) [Example 76, N,N,3,4-Tetramethyl-2-(2-((1-(methylamino)-3-phenylpropan-2-yl)oxy)phenyl)-2H-pyrazolo[3,4-d]pyridazin-7-amine], the Ki on human μ-opioid receptor (setting [2]) was greater than 500 nM; in assay [1] (setting [3]), 500 to 5000 nM.

Regarding `Cc1nnc(N(C)C)c2nn(-c3ccccc3OC(CCN(C)C)c3ccccc3)c(C)c12` (stereo not drawn) [Example 52, 2-(2-(3-(Dimethylamino)-1-phenylpropoxy)phenyl)-N,N,3,4-tetramethyl-2H-pyrazolo[3,4-d]pyridazin-7-amine], the Ki on human μ-opioid receptor was 100 to 500 nM; in assay [1] it was 500 to 5000 nM.

As to `CCN(C)c1nnc(C)c2c(C)n(-c3ccccc3OC(CCNC)c3ccccc3)nc12` (stereo not drawn) [Example 37, N-ethyl-N,3,4-trimethyl-2-(2-(3-(methylamino)-1-phenylpropoxy)phenyl)-2H-pyrazolo[3,4-d]pyridazin-7-amine], the values for the Ki (at human μ-opioid receptor; in assay [1]) were 100 to 500 nM and 500 to 5000 nM, respectively.

Consider `CNCCCOc1ccccc1-n1nc2c(N(C)C)nnc(C)c2c1C` [Example 4, N,N,3,4-tetramethyl-2-(2-(3-(methylamino)propoxy)phenyl)-2H-pyrazolo[3,4-d]pyridazin-7-amine], for which the results for the Ki (on human μ-opioid receptor (setting [2]); in assay [1] (setting [3])) were greater than 500 nM and 500 to 5000 nM, respectively.

As to `Cc1nnc(N(C)C)c2nn(-c3ccccc3OC3CCN(C)C3)c(C)c12` (stereo not drawn) [Example 53, N,N,3,4-tetramethyl-2-(2-((1-methylpyrrolidin-3-yl)oxy)phenyl)-2H-pyrazolo[3,4-d]pyridazin-7-amine], the inhibitory constant (Ki) on human μ-opioid receptor (setting [2]) was greater than 500 nM; in assay [1] (setting [3]) it was greater than 5000 nM.

For the compound `CCOc1cccc(C(CCNC)Oc2ccccc2-n2nc3c(N(C)C)nnc(C)c3c2C)c1` (stereo not drawn) [Example 90, 2-(2-(1-(3-ethoxyphenyl)-3-(methylamino)propoxy)phenyl)-N,N,3,4-tetramethyl-2H-pyrazolo[3,4-d]pyridazin-7-amine], the Ki was greater than 500 nM on human μ-opioid receptor (setting [2]) and 500 to 5000 nM in assay [1] (setting [3]).

With `Cc1nnc(N(C)C)c2nn(-c3ccccc3OCCC(N)c3ccccc3)c(C)c12` (stereo not drawn) [Example 22, 2-(2-(3-amino-3-phenylpropoxy)phenyl)-N,N,3,4-tetramethyl-2H-pyrazolo[3,4-d]pyridazin-7-amine], the Ki is greater than 500 nM at human μ-opioid receptor (setting [2]) and 500 to 5000 nM in assay [1] (setting [3]).

Regarding `CNCCCOc1ccccc1-n1nc2c(N(C)Cc3ccccc3)nnc(C)c2c1C` [Example 40, N-benzyl-N,3,4-trimethyl-2-(2-(3-(methylamino)propoxy)phenyl)-2H-pyrazolo[3,4-d]pyridazin-7-amine], the Ki at human μ-opioid receptor (setting [2]) was greater than 500 nM; in assay [1] (setting [3]), 500 to 5000 nM.

`Cc1nnc(N(C)C)c2nn(-c3ccccc3OC(Cc3ccccc3)CN(C)Cc3ccccc3)c(C)c12` (stereo not drawn) [Example 74, 2-(2-((1-(Benzyl(methyl)amino)-3-phenylpropan-2-yl)oxy)phenyl)-N,N,3,4-tetramethyl-2H-pyrazolo[3,4-d]pyridazin-7-amine]: the Ki was greater than 500 nM on human μ-opioid receptor (setting [2]) and greater than 5000 nM in assay [1] (setting [3]).

On to `CNCCC(Oc1cc(C(=O)N(C)C)ccc1-n1nc2c(N(C)C)nnc(C)c2c1C)c1ccccc1` (stereo not drawn) [Example 95], for which the Ki at human μ-opioid receptor (setting [2]) is greater than 500 nM; in assay [1] (setting [3]), 500 to 5000 nM.

On to `CNCCC(Oc1cc(N2CCCC2=O)ccc1-n1nc2c(N(C)C)nnc(C)c2c1C)c1ccccc1` (stereo not drawn) [Example 80, 1-(4-(7-(Dimethylamino)-3,4-dimethyl-2H-pyrazolo[3,4-d]pyridazin-2-yl)-3-(3-(methylamino)-1-phenylpropoxy)phenyl)pyrrolidin-2-one], for which the figures for the Ki (on human μ-opioid receptor (setting [2]); in assay [1] (setting [3])) were greater than 500 nM and 500 to 5000 nM, respectively.

As for `Cc1nnc(N(C)C)c2nn(-c3ccccc3OC(CCNCC(F)F)c3ccccc3)c(C)c12` (stereo not drawn) [Example 56, 2-(2-(3-((2,2-difluoroethyl)amino)-1-phenylpropoxy)phenyl)-N,N,3,4-tetramethyl-2H-pyrazolo[3,4-d]pyridazin-7-amine], the Ki at human μ-opioid receptor was in the range of 100 to 500 nM; in assay [1], 500 to 5000 nM.

Turning to `CNCCC(COC)Oc1ccccc1-n1nc2c(N(C)C)nnc(C)c2c1C` (stereo not drawn) [Example 51, 2-(2-((1-methoxy-4-(methylamino)butan-2-yl)oxy)phenyl)-N,N,3,4-tetramethyl-2H-pyrazolo[3,4-d]pyridazin-7-amine], the inhibitory constant (Ki) at human μ-opioid receptor (setting [2]) was greater than 500 nM; in assay [1] (setting [3]) it was greater than 5000 nM.

For `CNCC[C@H](Oc1ccccc1-n1nc2c(N(C)C)nnc(C)c2c1C)c1cccc(F)c1` [Example 103, (S)-2-(2-(1-(3-Fluorophenyl)-3-(methylamino)propoxy)phenyl)-N,N,3,4-tetramethyl-2H-pyrazolo[3,4-d]pyridazin-7-amine], the Ki at human μ-opioid receptor was greater than 500 nM; in assay [1] it was less than 500 nM.

With `Cc1nnc(N(C)C)c2nn(-c3ccccc3OC(CCNC3CC3)c3ccccc3)c(C)c12` (stereo not drawn) [Example 27, 2-(2-(3-(cyclopropylamino)-1-phenylpropoxy)phenyl)-N,N,3,4-tetramethyl-2H-pyrazolo[3,4-d]pyridazin-7-amine], the results for the Ki (on human μ-opioid receptor; in assay [1]) were 100 to 500 nM and 500 to 5000 nM, respectively.

Regarding `CNCCC(Oc1ccccc1-n1nc2c(N(C)CCOC)nnc(C)c2c1C)c1ccccc1` (stereo not drawn) [Example 60, N-(2-methoxyethyl)-N,3,4-trimethyl-2-(2-(3-(methylamino)-1-phenylpropoxy)phenyl)-2H-pyrazolo[3,4-d]pyridazin-7-amine], the Ki on human μ-opioid receptor (setting [2]) was greater than 500 nM; in assay [1] (setting [3]) it was 500 to 5000 nM.

For the compound `Cc1nnc(N(C)C)c2nn(-c3ccccc3OCC3NCCc4ccccc43)c(C)c12` (stereo not drawn) [Example 29, N,N,3,4-tetramethyl-2-(2-((1,2,3,4-tetrahydroisoquinolin-1-yl)methoxy)phenyl)-2H-pyrazolo[3,4-d]pyridazin-7-amine], the figures for the Ki (on human μ-opioid receptor (setting [2]); in assay [1] (setting [3])) were greater than 500 nM and 500 to 5000 nM, respectively.

Turning to `Cc1nnc(N(C)C)c2nn(-c3ccccc3OC(c3ccccc3)C3CCNCC3)c(C)c12` (stereo not drawn) [Example 11, N,N,3,4-tetramethyl-2-(2-(phenyl(piperidin-4-yl)methoxy)phenyl)-2H-pyrazolo[3,4-d]pyridazin-7-amine], the Ki at human μ-opioid receptor (setting [2]) is greater than 500 nM; in assay [1] (setting [3]) it was 500 to 5000 nM.

Consider `CNCCC(Oc1ccccc1-n1c(C)c2c(C)nnc(C)c2c1C)c1ccccc1` (stereo not drawn) [Example 65, N-Methyl-3-phenyl-3-(2-(1,4,5,7-tetramethyl-6H-pyrrolo[3,4-d]pyridazin-6-yl)phenoxy)propan-1-amine], for which the Ki fell in the range of 100 to 500 nM at human μ-opioid receptor and 500 to 5000 nM in assay [1].

Turning to `CNCC[C@@H](Oc1ccccc1-n1nc2c(N(C)C)nnc(C)c2c1C)c1ccccc1` [Example 100, (R)-N,N,3,4-tetramethyl-2-(2-(3-(methylamino)-1-phenylpropoxy)phenyl)-2H-pyrazolo[3,4-d]pyridazin-7-amine], the Ki at human μ-opioid receptor is greater than 500 nM; in assay [1], 500 to 5000 nM.

`CNCCC(Oc1ccccc1-n1nc2c(NC)nnc(C)c2c1C)c1ccccc1` (stereo not drawn) [Example 68, N,3,4-Trimethyl-2-(2-(3-(methylamino)-1-phenylpropoxy)phenyl)-2H-pyrazolo[3,4-d]pyridazin-7-amine]: the Ki on human μ-opioid receptor (setting [2]) is greater than 500 nM; in assay [1] (setting [3]), 500 to 5000 nM.

`CNCCC(Oc1ccc(Br)cc1-n1nc2c(N(C)C)nnc(C)c2c1C)c1ccccc1` (stereo not drawn) [Example 28, 2-(5-bromo-2-(3-(methylamino)-1-phenylpropoxy)phenyl)-N,N,3,4-tetramethyl-2H-pyrazolo[3,4-d]pyridazin-7-amine]: the Ki is greater than 500 nM at human μ-opioid receptor (setting [2]) and 500 to 5000 nM in assay [1] (setting [3]).

Take `Cc1nnc(N(C)C)c2nn(-c3ccccc3OCC3CCCNC3)c(C)c12` (stereo not drawn) [Example 5, N,N,3,4-tetramethyl-2-(2-(piperidin-3-ylmethoxy)phenyl)-2H-pyrazolo[3,4-d]pyridazin-7-amine]: the Ki was greater than 500 nM on human μ-opioid receptor (setting [2]) and 500 to 5000 nM in assay [1] (setting [3]).

For `CNCCC(Oc1ccccc1-n1nc2c(N(C)C)nnc(C)c2c1C)c1ccccn1` (stereo not drawn) [Example 18, N,N,3,4-tetramethyl-2-(2-(3-(methylamino)-1-(pyridin-2-yl)propoxy)phenyl)-2H-pyrazolo[3,4-d]pyridazin-7-amine], the values for the inhibitory constant (Ki) (on human μ-opioid receptor (setting [2]); in assay [1] (setting [3])) were greater than 500 nM and 500 to 5000 nM, respectively.
